This note sets out measurements from patent publication US12544575B2, “Bioelectric neuromodulation for hematopoiesis regulation during chemotherapy” (THE REGENTS OF THE UNIVERSITY OF CALIFORNIA, priority 2020, dated 2026).

Common to all, as to assay type: in vivo, rat
The test system of series [1] is SD rats. Put plainly: Survival of rats after two cycles of carboplatin chemotherapy. The conditions noted are these: after two cycles of carboplatin over a period of 60 days; carboplatin 60 mg/kg intraperitoneally on day 0, ES or G-CSF on day 2. The protocol:
(§1) In FIG. 7A is seen white blood cell concentration for each of the five groups of rats which were tested over two cycles of testing. Male SD rats (weighing 350 to 400 g) were used for studying chemotherapy-induced cytopenia. The rats were divided into five experimental groups: control group; electrical stimulation group; carboplatin group; carboplatin+electrical stimulation (ES) group; and carboplatin+G-CSF group.
(§2) For each cycle of treatment, a single dose of carboplatin (e.g., 60 mg/kg) or vehicle (saline) was injected intraperitoneally on day 0. On day 2, electrical autonomic nerve stimulation was performed for a specified period (e.g., 60 minutes), or a single dose of G-CSF was administered on the rats according to the different experimental groups. In the example treatment each cycle of treatment is considered to be 28 days, however, a treatment cycle could span from one to eight weeks.
FIG. 10 illustrates an example embodiment 590 of results indicating survival rates of the rats in the same five groups (control, ES, carboplatin, carboplatin+ES, and carboplatin+G-CSF) as previously described after two cycles of carboplatin over a period of 60 days.

The next series concerns bone marrow of SD rats. Put plainly: Immunofluorescence staining of the bone marrow microenvironment (nestin, TH, CD31). The protocol: The testing utilized immunofluorescence staining of nestin for mesenchymal stem cell, tyrosine hydroxylase (TH+) for sympathetic nerve, and CD31 for vascular to evaluate the alteration of bone marrow microenvironment after […] of carboplatin.
After two cycles of chemotherapy, exemplified as using carboplatin with different dosages of 40 mg/kg and 60 mg/kg, the bone marrow of the rats from the five experimental groups was analyzed by immunofluorescence to evaluate the alteration of the bone marrow microenvironment. The bone marrow tissue of rats was stained with nestin, TH and anti-CD31 antibody for mesenchymal stem cell, sympathetic nerve and endothelial cell, respectively.

The test system of series [2] is SD rats. As to the kind of experiment: Chemotherapy-induced cytopenia, complete blood count of peripheral blood. On the procedure:
as §1, §2
Blood samples for complete blood count (CBC) were collected in EDTA tubes on various days (day 0, 2, 7, 10, 14, 17, 21, and 28).

[3] abbreviates: after three cycles of carboplatin.
[4] abbreviates: after two cycles of carboplatin, 40 mg/kg and 60 mg/kg.

In turn, `N.N.O=C([O-])C1(C(=O)[O-])CCC1.[Pt+2]` [carboplatin] gave a survival rate in the series on SD rats [1] of 37.5%. In addition, in the series with bone marrow of SD rats (setting [3]), the “area of TH+/CD31 by immunofluorescence staining versus control group” value is given as “lower levels”, the “expression of TH+ in the sympathetic nerve” value is recorded as “reduced expression” and the “expression of nestin (mesenchymal stem cell) in comparison to the control group” value is “more extensive expression”. Further, in the series on bone marrow of SD rats (setting [4]), the “area of the sympathetic nerve along with arteriole compared to the control group” value was “significantly decreased” and the “mesenchymal stem cells compared to the control group” value was “increased”. Further, the concentration of hemoglobin entry with SD rats [2] (after carboplatin administration, whether rescue by electrical stimulation or G-CSF) was “significantly decreased”. In the series with SD rats [2] (day 10 of the first and second cycle), the “platelet count compared to the control group” value is “significantly reduced”.
